{"source": "ChEMBL document CHEMBL4433260", "about": "“Oxadiazole scaffolds in anti-tuberculosis drug discovery” (Bioorg Med Chem Lett, 2019)", "key": {"[1]": {"system": "Mycobacterium tuberculosis", "experiment": "Antimycobacterial activity against Mycobacterium tuberculosis H37Rv measured after 28 days by Lowensteine-Jensen method", "format": "functional", "conditions": "672 h"}, "[2]": {"system": "Mycobacterium tuberculosis", "experiment": "Antimycobacterial activity against Mycobacterium tuberculosis H37Rv by alamar blue assay", "format": "functional"}, "[3]": {"system": "Mycobacterium tuberculosis", "experiment": "Antimycobacterial activity against Mycobacterium tuberculosis H37Rv incubated for 5 days by alamar blue assay", "format": "functional", "conditions": "120 h"}, "[4]": {"system": "Mycolicibacterium smegmatis", "experiment": "Antimycobacterial activity against Mycobacterium smegmatis str. MC2 155", "format": "functional"}, "[5]": {"system": "Mycobacterium tuberculosis", "experiment": "Antimycobacterial activity against Mycobacterium tuberculosis Erdman", "format": "functional"}, "[6]": {"system": "Mycobacterium tuberculosis", "experiment": "Antimycobacterial activity against replicating Mycobacterium tuberculosis H37Rv at 8 ug/ml relative to control", "format": "functional"}, "[7]": {"system": "Mycobacterium tuberculosis", "experiment": "Antimycobacterial activity against non-replicating Mycobacterium tuberculosis H37Rv at 1.6 ug/ml relative to control", "format": "functional"}, "[8]": {"system": "Mycobacterium tuberculosis", "experiment": "Antimycobacterial activity against Mycobacterium tuberculosis H37Rv", "format": "functional"}, "[9]": {"experiment": "Inhibition of Mycobacterium tuberculosis H37Rv shikimate kinase using shikimic acid as substrate preincubated for 15 mins followed by substrate addition in presence of ATP by LC/MS analysis"}, "[10]": {"system": "Mycobacterium tuberculosis", "experiment": "Antitubercular activity against dormant stage of Mycobacterium tuberculosis H37Ra", "format": "functional"}, "[11]": {"system": "Mycobacterium tuberculosis", "experiment": "Antimycobacterial activity against Mycobacterium tuberculosis H37Rv at 250 ug/ml measured after 4 weeks by Lowensteine-Jensen method relative to control", "format": "functional", "conditions": "672 h"}, "[12]": {"system": "Mycobacterium tuberculosis", "experiment": "Antimycobacterial activity against Mycobacterium tuberculosis H37Rv at 100 ug/ml by alamar blue assay relative to control", "format": "functional"}}}
{"smiles": "Clc1nc2ccccc2cc1CN(c1ccccc1)c1nnc(-c2ccncc2)o1", "values": [{"measurement": "MIC", "setting": "[1]", "value": "60 to 200", "unit": "µM"}]}
{"smiles": "Clc1ccc(-c2nnc(/N=C/c3ccco3)o2)cc1", "values": [{"measurement": "MIC", "setting": "[2]", "value": 3.12, "unit": "µg/mL"}]}
{"smiles": "Clc1ccc2nc(Cl)c(CN(c3ccccc3)c3nnc(-c4cccnc4)o3)cc2c1", "values": [{"measurement": "MIC", "setting": "[1]", "value": "60 to 200", "unit": "µM"}]}
{"smiles": "Cn1c(-c2cccc(Cl)c2F)nc2cc(-c3nc(Cc4cccc(Cl)c4)no3)ccc21", "values": [{"measurement": "MIC", "setting": "[3]", "value": 1.6, "unit": "µg/mL"}]}
{"smiles": "O=C(Nc1nnc(-c2ccc(F)cc2)o1)c1ccc(Cl)cc1", "values": [{"measurement": "MIC", "setting": "[4]", "value": 0.4, "unit": "µg/mL"}, {"measurement": "MIC", "setting": "[5]", "value": 1.6, "unit": "µg/mL"}, {"measurement": "inhibition at 8 µg/mL", "setting": "[6]", "value": "> 90", "unit": "%"}, {"measurement": "inhibition at 1.6 µg/mL", "setting": "[7]", "value": "> 90", "unit": "%"}]}
{"smiles": "O=C(Nc1nnc(-c2ccccc2Cl)o1)c1cccc(Oc2ccccc2)c1", "values": [{"measurement": "MIC", "setting": "[8]", "value": "< 1", "unit": "µg/mL"}, {"measurement": "IC50", "setting": "[9]", "value": 3.43, "unit": "µM"}]}
{"smiles": "Cn1c(-c2cccc(Cl)c2F)nc2cc(-c3nc(-c4ccc(Cl)cc4)no3)ccc21", "values": [{"measurement": "MIC", "setting": "[3]", "value": 1.6, "unit": "µg/mL"}]}
{"smiles": "Clc1ccc2nc(Cl)c(CN(c3ccccc3)c3nnc(-c4ccncc4)o3)cc2c1", "values": [{"measurement": "MIC", "setting": "[1]", "value": "60 to 200", "unit": "µM"}]}
{"smiles": "CC1(C)Cc2c(C#CCO)c(NC(=O)C(C)(C)C)cc(-c3nnc(-c4ccc(C(F)(F)F)cc4)o3)c2O1", "values": [{"measurement": "IC90", "setting": "[10]", "value": 5.7, "unit": "µM"}]}
{"smiles": "Cc1nn(-c2ccccc2)c(Oc2ccc(F)cc2)c1-c1nnc(-c2ccc(Br)cc2)o1", "values": [{"measurement": "inhibition at 250 µg/mL", "setting": "[11]", "value": "> 90", "unit": "%"}]}
{"smiles": "COc1ccc(-c2nnc(-c3cc4cc(C)ccc4n4nnnc34)o2)cc1", "values": [{"measurement": "inhibition at 100 µg/mL", "setting": "[12]", "value": "> 90", "unit": "%"}]}
{"smiles": "Cn1c(-c2cccc(Cl)c2Cl)nc2cc(-c3nc(-c4ccc(Cl)cc4)no3)ccc21", "values": [{"measurement": "MIC", "setting": "[3]", "value": 1.6, "unit": "µg/mL"}]}
{"smiles": "CO[C@H]1O[C@H](Cc2nnc(C)o2)[C@@H](OCc2ccccc2)[C@H](OCc2ccccc2)[C@H]1OCc1ccccc1", "values": [{"measurement": "MIC", "setting": "[8]", "value": 60, "unit": "µM"}]}
{"smiles": "O=C(/C=C/c1ccccc1)Nc1nnc(C2CCCc3ccccc32)o1", "note": "(stereo not given)", "values": [{"measurement": "MIC", "setting": "[8]", "value": "< 1", "unit": "µg/mL"}, {"measurement": "IC50", "setting": "[9]", "value": 3.79, "unit": "µM"}]}
{"smiles": "Cc1ccc(-c2nnc(-c3c(C)nn(-c4ccccc4)c3Oc3cccc(F)c3)o2)cc1", "values": [{"measurement": "inhibition at 250 µg/mL", "setting": "[11]", "value": "> 90", "unit": "%"}]}
{"smiles": "Cc1ccc2c(c1)cc(-c1nnc(-c3ccncc3)o1)c1nnnn12", "values": [{"measurement": "inhibition at 100 µg/mL", "setting": "[12]", "value": "> 90", "unit": "%"}]}
{"smiles": "Cc1ccc(-c2nnc(-c3c(C)nn(-c4ccccc4)c3Oc3ccc(F)cc3)o2)cc1", "values": [{"measurement": "inhibition at 250 µg/mL", "setting": "[11]", "value": "> 90", "unit": "%"}]}
{"smiles": "Cn1c(-c2cccc(Cl)c2Cl)nc2cc(-c3nc(-c4ccccc4Cl)no3)ccc21", "values": [{"measurement": "MIC", "setting": "[3]", "value": 1.6, "unit": "µg/mL"}]}
{"smiles": "Cc1nn(-c2ccccc2)c(Oc2cccc(C(F)(F)F)c2)c1-c1nnc(-c2ccc(Br)cc2)o1", "values": [{"measurement": "inhibition at 250 µg/mL", "setting": "[11]", "value": "> 90", "unit": "%"}]}
{"smiles": "Cc1ccc2nc(Cl)c(CN(c3ccccc3)c3nnc(-c4cccnc4)o3)cc2c1", "values": [{"measurement": "MIC", "setting": "[1]", "value": "60 to 200", "unit": "µM"}]}
